# Measurements: US20060024264A1, “Antimicrobial copolymers and uses thereof” (priority 2004, published 2006)
# Test system: E. coli
# Test: Antimicrobial assays (MIC, cell growth by optical density at 595 nm)
# Format: cell-based
# Settings: Escherichia coli; incubation time 18 hours; 2-fold dilution series 500-3.9 μg/mL
# Protocol: Antimicrobial assays. Each polymer was dissolved in DMSO (5 mg/mL). […] The polymer solutions with E. coli were incubated at 36° C. for 18 hours, and cell growth was measured by optical density at λ=595 nm (Liu, D., et al., Angew. Chem. Int. Ed., 43:1158 (2004); Tew, G. N., et al., PNAS 99:5110 (2002)).
structure (smiles),measurement,value
"C=C(C)C(=O)OCCN.Cl [Monomer, 2-aminoethyl methacrylate hydrochloride]",MIC,> 500 µg/mL
